Results taken from patent publication US9364458B2, “Stabilized pharmaceutical dosage forms comprising atrasentan” (AbbVie Inc., priority 2013, dated 2016).
Structures can show the parent of a compound that is named as a salt. Values belong to the compound of their own block, whether it stands above or below them.

Assays:
[1] = Impurities / degradation products by HPLC in stability testing; type: physicochemical; settings: mixtures with atrasentan and crospovidone, 80° C.
[2] = tested on: subjects with diabetic nephropathy; assay: Phase IIb clinical trials of atrasentan; type: in vivo, human
Source text: The low dosing and the narrow therapeutic window for atrasentan have been confirmed through analysis of the data collected from recent Phase IIb clinical trials in subjects with diabetic nephropathy. These Phase IIb clinical trials evaluated the safety and efficacy of atrasentan to identify an appropriate balance between the systemic effects of atrasentan (which can lead to adverse side effects such as edema) and the efficacy effects of atrasentan. […] Reduction of residual albuminuria and the urinary-albumin-to-creatine ratio are surrogate endpoints generally associated with delaying the progression of end-stage renal disease and associated cardiovascular complications.

[3] = Dispersive surface energy by inverse gas chromatography; type: physicochemical
Procedure: Wet granulation blends prepared as described in Method 2 (atrasentan added dry to granulation bowl) and Method 3 (atrasentan added as HPMC suspension to granulation bowl) of Example 6 were analyzed prior to compression using inverse gas chromatography (“IGC”) to determine the surface energy of the blends. These measurements were compared to the measured values for pure atrasentan and pure HPMC.

[4] = about 0.25 mg to about 1.25 mg daily
[5] = daily dose greater than about 1.25 mg

SMILES: Cl.N[C@@H](CS)C(=O)O.O [L-cysteine hydrochloride monohydrate]
- stabilizing effect among the three anti-oxidants [1]: greatest stabilizing effect

SMILES: CCCCN(CCCC)C(=O)CN1C[C@H](c2ccc3c(c2)OCO3)[C@@H](C(=O)O)[C@@H]1c1ccc(OC)cc1 [atrasentan, (2R,3R,4S)-4-(1,3-benzodioxol-5-yl)-1-[2-(dibutylamino)-2-oxoethyl]-2-(4-methoxyphenyl)pyrrolidine-3-carboxylic acid]
- residual albuminuria [2, 4]: significantly reduce
- urinary-albumin-to-creatine ratio [2, 4]: significantly reduce
- adverse effects, particularly peripheral edema [2, 5]: increase in adverse effects
- efficacy relative to the 1.25 mg daily dose [2, 5]: without any further improvement in efficacy
- efficacy of daily dose ([2]; daily dose less than about 0.25 mg): sub-therapeutic

- DISPERSIVE SURFACE ENERGY ([3]; Average): 50.9 mJ · m^−2
- DISPERSIVE SURFACE ENERGY ([3]; Run 1): 50.6 mJ · m^−2
- DISPERSIVE SURFACE ENERGY ([3]; Run 2): 51.4 mJ · m^−2
SMILES: CCCCN(CCCC)C(=O)CN1C[C@H](c2ccc3c(c2)OCO3)[C@@H](C(=O)O)[C@@H]1c1ccc(OC)cc1 [Atrasentan Monohydrochloride]
